According to patent US20230278972A1, “SUBSTITUTED HALOALKYL SULFONANILIDE HERBICIDES” (FMC Corporation, priority 2020, published 2023):

Tests used:
[1] = system: barnyardgrass (Echinochloa crus-galli); assay: Test B flooded paddy test, barnyardgrass; settings: 336 h, read-out: Plant response rating, Barnyardgrass
[2] = system: barnyardgrass (Echinochloa crus-galli); assay: Test A postemergence, barnyardgrass; assay type: in vivo; settings: Echinochloa crus-galli, post-emergence, 240 h, Postemergence, 0 to 100 scale (0 no effect, 100 complete control), read-out: Plant response rating, Barnyardgrass
Procedure, shortened: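 Whole-plant herbicidal screen in pots of loam blended with sand. Sprays used a surfactant-containing, non-phytotoxic solvent vehicle. Timing was preemergence soil-directed at planting or postemergence at the one- to two-leaf stage (2–10 cm).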

[3] = system: blackgrass (Alopecurus myosuroides); assay: Test A postemergence, blackgrass; assay type: in vivo; settings: Alopecurus myosuroides, post-emergence, 240 h, Postemergence, 0 to 100 scale (0 no effect, 100 complete control), read-out: Plant response rating, Blackgrass
Procedure, shortened: (§1)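 Greenhouse pot test in a loam–sand blend; compounds delivered in a non-phytotoxic solvent carrying a surfactant, applied either as a directed spray to soil at seeding or over seedlings 2 to 10 cm high with one to two leaves.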

[4] = system: kochia (Bassia scoparia); assay: Test A postemergence, kochia; assay type: in vivo; settings: Bassia scoparia, post-emergence, 240 h, Postemergence, 0 to 100 scale (0 no effect, 100 complete control), read-out: Plant response rating, Kochia
Procedure, shortened: as §1

[5] = system: ragweed (common ragweed, Ambrosia artemisiifolia); assay: Test A preemergence, ragweed; assay type: in vivo; settings: Ambrosia artemisiifolia, pre-emergence, 240 h, Preemergence
Procedure, shortened: as §1

[6] = 500 g ai/ha, visual injury approx. 10 days

## Cc1cc(C)c(C(=O)N2CCC(F)(F)CC2)cc1NS(=O)(=O)C(F)(F)F [Compound 241, N-[5-[(4,4-Difluoro-1-piperidinyl)carbonyl]-2,4-dimethylphenyl]-1,1,1-trifluoromethanesulfonamide]
[1]
  pest or weed control at 250 g/ha: 25%
[2]; 125 g ai/ha
  pest or weed control at 125 g/ha: 60%
[2]; [6]
  pest or weed control at 500 g/ha: 90%
[3]; 125 g ai/ha
  pest or weed control at 125 g/ha: 0%
[3]; [6]
  pest or weed control at 500 g/ha: 80%
[4]; 125 g ai/ha
  pest or weed control at 125 g/ha: 60%
[4]; [6]
  pest or weed control at 500 g/ha: 90%
[5]; 125 g ai/ha, visual injury, 0 to 100 scale (0 no effect, 100 complete control), approx. 10 days, read-out: Plant response rating, Ragweed
  pest or weed control at 125 g/ha: 70%
[5]; 500 g ai/ha, visual injury on 0 to 100 scale (0 no effect, 100 complete control), approximately 10 days, read-out: Ragweed plant response rating
  pest or weed control at 500 g/ha: 90%
